This note sets out measurements from patent US9896443B2, “Perforin inhibiting benzenesulfonamide compounds, preparation and uses thereof” (Peter MacCallum Cancer Institute, priority 2012, dated 2018).

pIC50: −log10 of the molar value. Like-named read-outs stand apart in the source and are kept apart here.

In data set [1] the test system is KHYG-1 NK cell-mediated lysis of K562 cells. Briefly: Inhibition of KHYG-1 NK cell-mediated lysis of K562 cells (51Cr release). In kind it is cell-based. To be noted: K562 target cells, Effector:Target 2:1, 4 hours at 37° C. The method, then: Inhibition of KHYG-1 NK Cell-Mediated Lysis of K562 Cells.
Test compounds were added to KHYG-1 cells at various concentrations up to 20 µM and incubated at RT for 20 minutes. 1×10^6 K562 target cells were labelled with 75 μCi ^51Cr in 200 μl RPMI for 90 mins at 37° C., cells were washed as described above and resuspended in 5 ml RPMI+0.1% BSA. 50 μl of ^51Cr labelled K562 leukemia target cells were added to each well of the KHYG-1 plate (Effector:Target 2:1) and incubated at 37° C. for 4 hours. ^51Cr release was assayed using a Skatron Harvesting Press and radioactivity estimated on a Wallac Wizard 1470 Automatic Gamma counter (Turku, Finland). The percentage of specific cytotoxicity was calculated by the formula: […]

Data set [2] has as its target recombinant perforin (UniProt P10820). The data set is classed as cell-based. In short, it runs like this:
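Jurkat T lymphoma cells labelled with 51Cr for 1 h, washed, then exposed to recombinant perforin with compound in RPMI plus 0.1% BSA. Lysis measured as 51Cr release. IC50 from a concentration range run in triplicate.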

[3] abbreviates: lysis of Jurkat T lymphoma cells by recombinant perforin, 0.1% BSA, 30 min pre-incubation, 4 hours at 37° C.; read-out: Jurkat IC50.
Where [4] appears, read: read-out: Jurkat IC50; lysis of Jurkat T lymphoma cells by recombinant perforin, 0.1% BSA, 30 min pre-incubation, 4 hours at 37° C.

Sequence of recombinant perforin (P10820 whole entry): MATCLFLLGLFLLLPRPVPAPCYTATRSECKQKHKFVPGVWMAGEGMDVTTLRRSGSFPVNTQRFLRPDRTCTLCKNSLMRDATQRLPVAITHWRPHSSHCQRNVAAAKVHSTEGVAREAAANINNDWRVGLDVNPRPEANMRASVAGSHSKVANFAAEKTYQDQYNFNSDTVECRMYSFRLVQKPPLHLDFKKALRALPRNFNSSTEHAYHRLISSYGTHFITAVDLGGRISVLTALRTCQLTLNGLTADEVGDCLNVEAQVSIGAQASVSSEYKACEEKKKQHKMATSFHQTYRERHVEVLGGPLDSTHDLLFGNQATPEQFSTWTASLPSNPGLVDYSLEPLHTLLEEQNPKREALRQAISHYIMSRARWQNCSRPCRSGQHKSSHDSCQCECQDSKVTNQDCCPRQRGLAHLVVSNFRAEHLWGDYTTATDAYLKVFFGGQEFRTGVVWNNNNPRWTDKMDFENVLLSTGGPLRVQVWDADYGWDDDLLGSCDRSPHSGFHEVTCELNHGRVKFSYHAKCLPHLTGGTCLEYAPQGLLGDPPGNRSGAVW

A word on the inhibition: it is the relative decrease from the control value, in per cent. Usually melting point stands for the temperature, or range, at which the solid turns liquid. For orientation: pIC50 means the IC50 on a negative log10 scale, so that one unit is a factor of ten. For `CN1Cc2cc(-c3ccc(-c4cncc(NS(=O)(=O)c5ccc(Cl)c(Cl)c5)c4)s3)ccc2C1=O` [Compound 12, 3,4-Dichloro-N-(5-(5-(2-methyl-1-oxoisoindolin-5-yl)thiophen-2-yl)pyridin-3-yl)benzenesulfonamide], the melting point is 256 to 259 °C. This molecule also showed an inhibition at 20 µM in data set [1] (4 h) of 45%. Moreover, the negative logarithm of the IC50 (pIC50) in data set [2] (setting [3]) was 5.88.
Molecule `CN1Cc2cc(-c3ccc(-c4ccnc(NS(=O)(=O)c5ccc(F)cc5F)c4)s3)ccc2C1=O` [Compound 41, 2,4-Difluoro-N-(4-(5-(2-methyl-1-oxoisoindolin-5-yl)thiophen-2-yl)pyridin-2-yl)benzenesulfonamide] gave a melting point of 235 to 239 °C. For the same molecule, 20 µM produced 14% inhibition in data set [1] (4 h). Besides, the pIC50 in data set [2] (setting [3]) is 5.33.
The molecule `CN1Cc2cc(-c3ccc(-c4cncc(NS(=O)(=O)c5cccc(Br)c5)c4)s3)ccc2C1=O` [Compound 16, 3-Bromo-N-(5-(5-(2-methyl-1-oxoisoindolin-5-yl)thiophen-2-yl)pyridin-3-yl)benzenesulfonamide] displayed a melting point of 303 to 307 °C. In data set [1] (4 h), the inhibition at 20 µM is 20%. Also, the pIC50 in data set [2] (setting [3]) was 5.68.
The corresponding values for `CN1Cc2cc(-c3ccc(-c4cncc(NS(=O)(=O)c5ccccc5Br)c4)s3)ccc2C1=O` [Compound 15, 2-Bromo-N-(5-(5-(2-methyl-1-oxoisoindolin-5-yl)thiophen-2-yl)pyridin-3-yl)benzenesulfonamide] are 289 to 293 °C, 42% and 5.58.
`CCCCn1cc(C(C)=O)c2cc(-c3ccc(-c4cncc(NS(=O)(=O)c5ccc(F)cc5F)c4)s3)ccc21` [Compound 58, N-(5-(5-(3-Acetyl-1-butyl-1H-indol-5-yl)thiophen-2-yl)pyridin-3-yl)-2,4-difluorobenzenesulfonamide]: the melting point was in the range of 188 to 191 °C. The molecule also displayed an inhibition at 20 µM in data set [1] of 64%. Also, the pIC50 in data set [2] (setting [3]) was 5.26.
`Cc1cccc(S(=O)(=O)Nc2cncc(-c3ccc(-c4ccc5c(c4)CN(C)C5=O)s3)c2)c1` [Compound 2, 3-Methyl-N-(5-(5-(2-methyl-1-oxoisoindolin-5-yl)thiophen-2-yl)pyridin-3-yl)benzenesulfonamide]: the melting point was in the range of 281 to 284 °C. In addition, testing at 20 µM in data set [1] (4 h) gave an inhibition of 27%. For the same molecule, the pIC50 in data set [2] (setting [4]) was 5.13.
For the molecule `CN1Cc2cc(-c3ccc(-c4cncc(NS(=O)(=O)c5ccccn5)c4)s3)ccc2C1=O` [Compound 31, N-(5-(5-(2-Methyl-1-oxoisoindolin-5-yl)thiophen-2-yl)pyridin-3-yl)pyridine-2-sulfonamide], the melting point is 272 to 275 °C. The same molecule yielded an inhibition at 20 µM in data set [1] (4 h) of 19%. Further, the pIC50 in data set [2] (setting [3]) is 6.13.
The molecule `CN1CCc2ccc(-c3ccc(-c4cncc(NS(=O)(=O)c5ccc(F)cc5F)c4)s3)cc2C1=O` [Compound 55, 2,4-Difluoro-N-(5-(5-(2-methyl-1-oxo-1,2,3,4-tetrahydroisoquinolin-7-yl)thiophen-2-yl)pyridin-3-yl)benzenesulfonamide] registered a melting point of 280 to 283 °C. Further, testing at 20 µM in data set [1] (4 h) gave an inhibition of 0%.
For `CN1Cc2cc(-c3ccc(-c4cncc(NS(=O)(=O)c5ccccc5F)c4)s3)ccc2C1=O` [Compound 4, 2-Fluoro-N-(5-(5-(2-methyl-1-oxoisoindolin-5-yl)thiophen-2-yl)pyridin-3-yl)benzene-sulfonamide], the melting point is 289 to 292 °C. In data set [1] (4 h), this molecule came in with an inhibition at 20 µM of 40%. Moreover, in data set [2] (setting [3]), the pIC50 is 5.69.
For the molecule `CN1Cc2cc(-c3ccc(-c4cncc(NS(=O)(=O)c5cccc(Cl)c5)c4)s3)ccc2C1=O` [Compound 10, 3-Chloro-N-(5-(5-(2-methyl-1-oxoisoindolin-5-yl)thiophen-2-yl)pyridin-3-yl)benzenesulfonamide], the melting point was 291 to 295 °C. The molecule further registered an inhibition at 20 µM in data set [1] (4 h) of 31%. In addition, the pIC50 in data set [2] (setting [3]) was 5.62.
Consider `COc1cccc(S(=O)(=O)Nc2cncc(-c3ccc(-c4ccc5c(c4)CN(C)C5=O)s3)c2)c1` [Compound 19, 3-Methoxy-N-(5-(5-(2-methyl-1-oxoisoindolin-5-yl)thiophen-2-yl)pyridin-3-yl)benzenesulfonamide], for which the melting point lay in the range of 278 to 280 °C. The molecule further yielded an inhibition at 20 µM in data set [1] (4 h) of 17%. The pIC50 in data set [2] (setting [3]) is 5.59.
For the molecule `CN1Cc2cc(-c3ccc(-c4cnc(N)c(S(=O)(=O)Nc5ccc(F)cc5F)c4)s3)ccc2C1=O` [Compound 45, 2-Amino-N-(2,4-difluorophenyl)-5-(5-(2-methyl-1-oxoisoindolin-5-yl)thiophen-2-yl)pyridine-3-sulphonamide], the melting point was 278 to 279 °C. The molecule further displayed an inhibition at 20 µM in data set [1] (4 h) of 14%. The pIC50 in data set [2] (setting [4]) is 5.33.
Molecule `O=C1c2ccc(-c3ccc(-c4cncc(NS(=O)(=O)c5ccc(F)cc5F)c4)s3)cc2CN1CCO` [Compound 56, 2,4-Difluoro-N-(5-(5-(2-(2-hydroxyethyl)-1-oxoisoindolin-5-yl)thiophen-2-yl)pyridin-3-yl)benzenesulfonamide] came in with a melting point of 211 to 216 °C. For the same molecule, the inhibition at 20 µM in data set [1] (4 h) is 32%. Moreover, the pIC50 in data set [2] (setting [4]) was 5.88.
The molecule `CN1Cc2cc(-c3ccc(-c4cncc(NS(=O)(=O)c5cccc(OC(F)(F)F)c5)c4)s3)ccc2C1=O` [Compound 23, N-(5-(5-(2-Methyl-1-oxoisoindolin-5-yl)thiophen-2-yl)pyridin-3-yl)-3-(trifluoromethoxy)benzenesulfonamide] came in with a melting point of 230 to 232 °C. Besides, in data set [1] (4 h), the inhibition at 20 µM was 38%. Also, the pIC50 in data set [2] (setting [3]) is 5.85.
The corresponding values for `CN1Cc2cc(-c3ccc(-c4cncc(NS(=O)(=O)c5ccccc5Cl)c4)s3)ccc2C1=O` [Compound 9, 2-Chloro-N-(5-(5-(2-methyl-1-oxoisoindolin-5-yl)thiophen-2-yl)pyridin-3-yl)benzenesulfonamide] are 299 to 303 °C, 47% and 5.40.
In turn, `CN1Cc2ccc(-c3ccc(-c4cncc(NS(=O)(=O)c5ccc(F)cc5F)c4)s3)cc2C1=O` [Compound 50, 2,4-Difluoro-N-(5-(5-(2-methyl-3-oxoisoindolin-5-yl)thiophen-2-yl)pyridin-3-yl)benzenesulfonamide] gave a melting point of 292 to 295 °C. Moreover, 20 µM produced 27% inhibition in data set [1] (4 h). Moreover, the pIC50 in data set [2] (setting [4]) is 4.98.
In turn, `CN1Cc2cc(-c3ccc(-c4cncc(NS(=O)(=O)c5cccs5)c4)s3)ccc2C1=O` [Compound 34, N-(5-(5-(2-Methyl-1-oxoisoindolin-5-yl)thiophen-2-yl)pyridin-3-yl)thiophene-2-sulfonamide] registered a melting point of 300 to 304 °C. For the same molecule, in data set [1] (4 h), the inhibition at 20 µM was found to be 45%. The negative-log IC50 (pIC50) in data set [2] (setting [3]) is 5.97.
The matching figures for `CN1Cc2cc(-c3ccc(-c4cncc(S(=O)(=O)Nc5ccc(F)cc5F)c4)s3)ccc2C1=O` [Compound 44, N-(2,4-Difluorophenyl)-5-(5-(2-methyl-1-oxoisoindolin-5-yl)thiophen-2-yl)pyridine-3-sulphonamide]: 221 to 224 °C, 57% and 5.65.
For `Cc1ccc(S(=O)(=O)Nc2cncc(-c3ccc(-c4ccc5c(c4)CN(C)C5=O)s3)c2)cc1Cl` [Compound 27, 3-Chloro-4-methyl-N-(5-(5-(2-methyl-1-oxoisoindolin-5-yl)thiophen-2-yl)pyridin-3-yl)benzenesulfonamide], the melting point lay in the range of 277 to 279 °C. In data set [1] (4 h), this molecule yielded an inhibition at 20 µM of 52%.
Molecule `CN1Cc2cc(-c3ccc(-c4cncc(N(C)S(=O)(=O)c5ccc(F)cc5F)c4)s3)ccc2C1=O` [Compound 46, 2,4-Difluoro-N-methyl-N-(5-(5-(2-methyl-1-oxoisoindolin-5-yl)thiophen-2-yl)pyridin-3-yl)benzenesulphonamide] showed a melting point of 200 to 202 °C. This molecule also registered an inhibition at 20 µM in data set [1] (4 h) of 28%. The pIC50 in data set [2] (setting [3]) was 5.04.
The matching figures for `CN1Cc2cc(-c3ccc(-c4cncc(NS(=O)(=O)c5ccc(Br)cc5)c4)s3)ccc2C1=O` [Compound 17, 4-Bromo-N-(5-(5-(2-methyl-1-oxoisoindolin-5-yl)thiophen-2-yl)pyridin-3-yl)benzenesulfonamide]: 276 to 279 °C, 6% and 5.06.
Consider `Cc1ccc(NS(=O)(=O)c2ccccn2)cc1-c1ccc(-c2ccc3c(c2)CN(C)C3=O)s1` [Compound 60, N-(4-Methyl-3-(5-(2-methyl-1-oxoisoindolin-5-yl)thiophen-2-yl)phenyl)pyridine-2-sulfonamide], for which the melting point was 274 to 277 °C. In addition, 20 µM produced 17% inhibition in data set [1] (4 h). Moreover, the pIC50 in data set [2] (setting [3]) is 4.81.
Regarding `COc1ncc(-c2ccc(-c3ccc4c(c3)CN(C)C4=O)s2)cc1NS(=O)(=O)c1ccc(F)cc1F` [Compound 37, 2,4-Difluoro-N-(2-methoxy-5-(5-(2-methyl-1-oxoisoindolin-5-yl)thiophen-2-yl)pyridin-3-yl)benzenesulphonamide], the melting point lay within 224 to 227 °C. Moreover, the inhibition at 20 µM in data set [1] (4 h) amounted to 36%. The pIC50 in data set [2] (setting [3]) was 5.45.
